In patent publication US9517208B2, “Abuse-deterrent dosage forms” (PURDUE PHARMA L.P., priority 2013, dated 2016):

Experiment: Osmolality of mixtures of crushed tablets (or drug solution) in distilled water, Osmometer Model 3250
Type: physicochemical
Conditions: 1 mg/ml, without dextrose, sodium chloride and potassium phosphate dibasic (control)
Protocol: The osmolality of the resulting solution may be measured by using an osmometer (e.g., Advanced® Osmometer Model 3250, manufactured by Advanced Instruments, Inc., the User's Guide (3255 Rev13 042710) of which is herein incorporated by reference).
To determine whether mixtures formed by crushing tablets formulated prior to the present invention and mixing the crushed tablets with 3 mL or 5 mL of distilled water are hypertonic, a 30 mg Roxicodone® tablet^1 (oxycodone hydrochloride tablets USP) was crushed with a mortar and pestle to a powder. […]
(§1) To determine whether the mixtures (i.e., solutions, suspensions or gels) formed by crushing these tablets and mixing the crushed tablets with 3 mL or 5 mL of distilled water are hypertonic, one tablet of each formulation was crushed with a mortar and pestle. […] The osmolality of the resulting mixtures was measured using Osmometer Model 3250 manufactured by Advanced Instruments, Inc. The following results were obtained: […]
as §1, with “tablet from” for “tablet of”, “each blend” for “each formulation”, “and pestle to a powder.” for “and pestle.”, “measured twice” for “measured”

## COc1ccc2c3c1O[C@H]1C(=O)CC[C@H]4[C@@H](C2)N(C)CC[C@]314.O=C(O)C(O)C(O)C(=O)O [hydrocodone bitartrate]
  Osmolality of solution: 4 mOsmol
